Laboratory results: patent US20240245736A1, “COMPOSITIONS AND METHODS FOR REDUCING BLOOD ALCOHOL CONTENT” (LIFE WELL LIVED, LLC, priority 2012, published 2024)

Assay: BAC scores by breathalyzer and observed behavior in subjects who had voluntarily consumed alcohol, compared with projected BAC
Type: in vivo, human
Parameters: actual BAC score / actual BAC: unit not given here
Details: for effect on the subject's BAC score, summary of the experiments: actual vs projected BAC over the course of the experiment; for change in BAC twenty minutes after administration: summary over subjects; for signs of intoxication: twenty minutes after administration
Description: The following experiments involved subjects who voluntarily consumed alcoholic beverages. The subjects chose the type and amount of alcohol that was consumed, as well as the rate at which the alcohol was consumed. At the point when the subjects started to feel effects of their alcohol consumption and chose to stop consuming alcohol, the subjects voluntarily consumed a composition that contained a source of NAD+, Lactobacillus, Bifidobacterium, or a combination of two or more of those ingredients. Projected BAC scores were calculated approximately every twenty minutes using an online BAC calculator provided by the Wisconsin Department of Transportation, which provides a projected BAC based on factors such as the subject's weight, sex, alcohol consumed, rate of alcohol consumed, and food consumed. BAC scores were also quantitatively measured approximately every twenty minutes using a breathalyzer. The projected BAC score served as a negative control because it estimates the change in BAC that is expected to occur over time after a subject stops consuming alcohol. Changes in each subject's behavior were also observed over the course of the experiment.
The ingredients that were administered to the subjects are commercially available and sold for human consumption. In the following experiments, NAD+ was provided by administering 5 mL of Liquid CoQ10, which is made by NOW Foods and contains 5 mg NAD+ in the 5 mL dose. To administer Lactobacillus, the subjects were given two Culturelle® Health & Wellness capsules, each of which contains Lactobacillus GG (10 billion cells). To administer Bifidobacterium, subjects were given two capsules of Align® Bifantis® Bifidobacterium infantis 35624, which contain 1 billion cfu per capsule. To administer Lactobacillus and Bifidobacterium, subjects were given 1-2 capsules of Dr. Mercola's® Complete Probiotics capsules, each of which contains 35 billion cells including the following species: Lactobacillus acidophilus DDS-1, Lactobacillus casei, Lactobacillus plantarum, Lactobacillus salivarius, Lactobacillus rhamnosus, Lactobacillus brevis, Bifidobacterium lactis, Bifidobacterium longum, Bifidobacterium bifidum, and Streptococcus thermophilus. Subjects were also given 5 mg of zinc, which was provided in liquid form.

Bifidobacterium
actual BAC (FIG. 7, person, 146 pounds, wine, 1:20, twenty minutes after administration, BAC at administration 0.159, projected 0.157): 0.151 | effect on the subject's BAC score, actual vs projected (FIG. 7 subject): little effect | actual BAC (FIG. 8, person, 171 pounds, 12:40, twenty minutes after administration, BAC at administration 0.13, projected 0.132): 0.125 | effect on the subject's BAC score, actual vs projected (FIG. 8 subject): little effect | effect on the subject's BAC score, summary of the experiments: no effect or only a minimal effect | change in BAC twenty minutes after administration: increase in BAC

NC(=O)c1ccc[n+]([C@@H]2O[C@H](COP(=O)([O-])OP(=O)(O)OC[C@H]3O[C@@H](n4cnc5c(N)ncnc54)[C@H](O)[C@@H]3O)[C@@H](O)[C@H]2O)c1 [NAD+, nicotinamide adenine dinucleotide, reference compound]
actual BAC score (FIG. 1, person, 198 pounds, beer and wine, 11:12, twenty minutes after administration, BAC at administration 0.089, projected 0.084): 0.082 | effect on the subject's BAC score, actual vs projected (FIG. 1 subject): no effect | signs of intoxication (FIG. 1 subject): continued to exhibit signs of intoxication | actual BAC score (FIG. 2, person, 188 pounds, beer, 11:12, twenty minutes after administration, BAC at administration 0.085, projected 0.085): 0.086 | effect on the subject's BAC score, actual vs projected (FIG. 2 subject): minimal or no effect | signs of intoxication (FIG. 2 subject): continued to exhibit signs of intoxication | actual BAC score (FIG. 3, person, 169 pounds, beer and vodka, 11:12, twenty minutes after administration, BAC at administration 0.086, projected 0.087): 0.086 | effect on the subject's BAC score, actual vs projected (FIG. 3 subject): little effect | signs of intoxication (FIG. 3 subject): continued to exhibit signs of intoxication | actual BAC (FIG. 9, person, 182 pounds, beer and vodka, 11:32, 40 minutes after NAD+ at 10:52 (BAC 0.088), before Lactobacillus and Bifidobacterium): 0.056 | effect on the subject's BAC score, summary of the experiments: no effect or only a minimal effect | change in BAC twenty minutes after administration: increase in BAC

Lactobacillus
actual BAC score (FIG. 4, person, 122 pounds, wine and vodka, 7:25, twenty minutes after administration, BAC at administration 0.086, projected 0.084): 0.082 | effect on the subject's BAC score, actual vs projected (FIG. 4 subject): no effect | signs of intoxication (FIG. 4 subject): continued to exhibit signs of intoxication | actual BAC score (FIG. 5, person, 155 pounds, beer and wine, 7:25, twenty minutes after administration, BAC at administration 0.13, projected 0.129): 0.12 | effect on the subject's BAC score, actual vs projected (FIG. 5 subject): little effect | actual BAC score (FIG. 6, person, 169 pounds, beer and vodka, 7:25, twenty minutes after administration, BAC at administration 0.086, projected 0.074): 0.067 | effect on the subject's BAC score, actual vs projected (FIG. 6 subject): little effect | effect on the subject's BAC score, summary of the experiments: no effect or only a minimal effect | change in BAC twenty minutes after administration: increase in BAC
